Earlier results in paper PMC4912218, “Targeted metabolomics of Gammarus pulex following controlled exposures to selected pharmaceuticals in water” (The Science of the Total Environment, 2016).

Test system: Thamnocephalus platyurus
Details: ref Kim et al., 2009; cited from earlier work

Oc1cc(Cl)ccc1Oc1ccc(Cl)cc1Cl [Triclosan]
24 h- LC50 T. platyurus: 0.47 µg/mL
